Assay results from US5962314A, “Calcium receptor-active molecules” (priority 1997, dated 1999).
Entries after “also recorded” stand apart in the source; their conditions may differ. No end group written: not given here.

Columns and labels:
[1] = system: parathyroid calcium receptors; assay: response of calcium receptor-transfected HEK293, CHO and JEG-3 cells; assay type: cell-based
Experimental: Functional calcium receptor expression was assessed by loading cells with fura-2 and measuring changes in intracellular calcium levels after addition of calcium receptor agonists. Control constructs were prepared by cloning the substance K receptor and the M1 muscarinic receptor cDNAs into similar commercial vectors as described above. Control constructs were transfected into the various cell lines described above, and the response of the cells containing the control constructs to substance K or to carbachol, respectively, was measured. […] Neither control responded to increases in extracellular calcium.

[2] = molecular target: T1, parathyroid cell calcium receptor (Bos taurus, UniProt P35384); assay: cell-based; assay type: cell-based
T1 sequence (P35384 20-1085): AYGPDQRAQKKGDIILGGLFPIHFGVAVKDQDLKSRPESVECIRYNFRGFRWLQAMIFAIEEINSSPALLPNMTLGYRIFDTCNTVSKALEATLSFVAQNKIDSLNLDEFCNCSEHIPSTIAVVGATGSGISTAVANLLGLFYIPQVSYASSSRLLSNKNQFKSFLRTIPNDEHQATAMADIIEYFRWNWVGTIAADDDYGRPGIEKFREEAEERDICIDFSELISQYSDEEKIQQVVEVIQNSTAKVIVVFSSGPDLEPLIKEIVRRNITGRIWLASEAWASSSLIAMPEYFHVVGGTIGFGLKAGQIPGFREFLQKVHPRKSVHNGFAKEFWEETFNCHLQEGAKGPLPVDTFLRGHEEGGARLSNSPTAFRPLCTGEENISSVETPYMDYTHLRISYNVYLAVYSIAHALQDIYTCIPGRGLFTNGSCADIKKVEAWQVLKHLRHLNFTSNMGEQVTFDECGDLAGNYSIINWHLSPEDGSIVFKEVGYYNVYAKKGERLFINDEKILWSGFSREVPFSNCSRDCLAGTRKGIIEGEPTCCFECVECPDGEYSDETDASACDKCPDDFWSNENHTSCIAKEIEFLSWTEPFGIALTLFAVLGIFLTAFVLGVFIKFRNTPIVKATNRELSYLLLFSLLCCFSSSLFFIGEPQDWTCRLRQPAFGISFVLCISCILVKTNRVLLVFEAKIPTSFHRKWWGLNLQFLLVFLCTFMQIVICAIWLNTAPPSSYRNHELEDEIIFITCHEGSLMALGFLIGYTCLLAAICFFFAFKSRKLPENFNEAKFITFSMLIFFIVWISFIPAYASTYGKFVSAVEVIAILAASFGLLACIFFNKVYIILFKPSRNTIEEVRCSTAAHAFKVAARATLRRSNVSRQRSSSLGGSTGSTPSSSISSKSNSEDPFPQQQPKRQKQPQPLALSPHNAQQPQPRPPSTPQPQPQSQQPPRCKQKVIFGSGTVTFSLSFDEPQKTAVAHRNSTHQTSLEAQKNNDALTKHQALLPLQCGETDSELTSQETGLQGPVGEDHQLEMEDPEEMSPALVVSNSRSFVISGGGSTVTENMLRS
Experimental: For example,. bovine parathyroid cells loaded with fura-2 are initially suspended in buffer containing 0.5 mM CaCl2. A test substance is added to the cuvette in a small volume (5-15 μl) and changes in the fluorescence signal are measured. Cumulative increases in the concentration of the test substance are made in the cuvette until some predetermined concentration is achieved or no further changes in fluorescence are noted.
Human parathyroid glands, were obtained from patients undergoing surgical removal of parathyroid tissue for primary or uremic hyperparathyroidism (uremic HPT), and were treated similarly to bovine tissue.
The cells were then pelleted, resuspended in the same buffer, but lacking the ester, and incubated a further 15 minutes at 37° C. The cells were subsequently washed twice with PCB containing 0.5 mM CaCl2 and 0.5% BSA and maintained at room temperature (about 20° C.). Immediately before use, the cells were diluted five-fold with prewarmed 0.5 mM CaCl2 -PCB to obtain a final BSA concentration of 0.1%. The concentration of cells in the cuvette used for fluorescence recording was 1-2×10^6 /ml.
The fluorescence of indicator-loaded cells was measured at 37° C. in a spectrofluorimeter (Biomedical Instrumentation Group, University of Pennsylvania, Philadelphia, Pa.) equipped with a thermostated cuvette holder and magnetic stirrer using excitation and emission wavelengths of 340 and 510 nm, respectively. […] Leakage of dye is dependent on temperature and most occurs within the first 2 minutes after warming the cells in the cuvette. Dye leakage increases only very slowly thereafter. To correct the calibration for dye leakage, cells were placed in the cuvette and stirred at 37° C. for 2-3 minutes. The cell suspension was then removed, the cells pelleted, and the supernatant returned to a clean cuvette. […] This estimate was subtracted from the apparent Fmin.

bovine parathyroid cells = assay: PTH secretion from bovine parathyroid cells; assay type: cell-based
Experimental: PTH secretion was measured by first suspending cells in PCB containing 0.5 mM CaCl2 and 0.1% BSA.

inositol phosphates = assay: inositol phosphate formation in parathyroid cells; assay type: cell-based, bovine; conditions: 30 seconds
Experimental: After 30 seconds, the reaction was terminated by the addition of CHCl3 :MeOH:HCl and IP1 (circles) and IP3 (triangles) separated by anion exchange chromatography. Each point is the mean of 2 experiments, each performed in triplicate.
This section describes procedures measuring inositol phosphate formation. Membrane phospholipids were labeled by incubating parathyroid cells with 4 μCi/ml ^3 H-myo-inositol for 20-24 hours. Cells were then washed and resuspended in PCB containing 0.5 mM CaCl2 and 0.1% BSA. Incubations were performed in microfuge tubes in the absence or presence of various concentrations of organic polycation for different times. Reactions were terminated by the addition of 1 ml chloroform-methanol-12 N HCl (200:100:1; v/v/v). Aqueous phytic acid hydrolysate (200 μl; 25 μg phosphate/tube). The tubes were centrifuged and 600 μl of the aqueous phase was diluted into 10 ml water.
Inositol phosphates were separated by ion-exchange chromatography using AG1-X8 in either the chloride- or formate-form. When only IP3 levels were to be determined, the chloride-form was used, whereas the formate form was used to resolve the major inositol phosphates (IP3, IP2, and IP1). […] The last eluate was diluted and counted. […] The eluted samples from the formate columns were rotary evaporated, the residues brought up in cocktail, and counted.

serum ionized calcium = assay: serum ionized Ca2+ in rats; assay type: in vivo, rat; conditions: NPS 467 i.p., low calcium diet
Experimental: (§1) Compounds shown to activate the bovine parathyroid cell calcium receptor in vitro were tested for hypocalcemic activity in vivo. Male Sprague-Dawley rats (200 g) were maintained on a low calcium diet for one week prior to receiving test substance or vehicle as control. Blood was collected from the tail vein three hours after the intra-peritoneal administration of NPS 467. […] Serum total calcium, albumin and phosphate were measured by techniques well known in the art.
Rats (male, Sprague-Dawley, 250-300 g) were fed standard rat chow and fasted overnight prior to the experiment. NPS R-467 was suspended in corn oil and administered as a single oral dose through a gavage needle. Three hours later a sample of blood was taken from the tail vein and assessed for ionized Ca^2+ levels.

PTH = PTH levels in rats; assay type: in vivo, rat; conditions: NPS 467, preliminary studies
Text: The fall in blood Ca^2+ at this time was paralleled by a proportional fall in the levels of blood total calcium.

[3] = system: serum albumin or phosphate; assay: serum albumin and phosphate in rats; assay type: in vivo, rat; conditions: i.p.
Experimental: as §1

[4] = system: osteoclast calcium receptor; assay: [Ca2+]i in indo-1-loaded rat osteoclasts; assay type: cell-based
[5] = molecular target: T1, parathyroid cell calcium receptor; assay: Cl- current in Xenopus oocytes injected with bovine parathyroid cell mRNA; assay type: cell-based; design: Whole pieces of gland were used to prepare mRNA that directs the expression of the calcium receptor in Xenopus oocytes; expressed in transfected cells; host or cells: Xenopus laevis oocytes injected with parathyroid poly(A)+ mRNA; conditions: oocytes expressing parathyroid calcium receptor, fendiline 100 μM
Experimental: (§2) Following incubation, an oocyte was placed into a 100-μl plastic chamber and superfused with MBS at a flow rate of 0.5 ml/min using a peristaltic pump. Test molecules or inorganic polycations were added by rapidly moving the tubing into different buffers. Recording and current-passing electrodes were constructed from thin-wall capillary tubing pulled to a resistance of 1-3 Mohms and filled with 3 M KCl. […] Currents were recorded directly onto a strip chart recorder.

cyclic AMP = assay type: cell-based, bovine
Experimental: Cells were incubated as above for PTH secretion studies and at the end of the incubation, a 0.15-ml sample was taken and transferred to 0.85 ml of hot (70° C.) water and heated at this temperature for 5-10 minutes. The tubes were subsequently frozen and thawed several times and the cellular debris sedimented by centrifugation. Portions of the supernatant were acetylated and cyclic AMP concentrations determined by radioimmunoassay.
Each value is the mean±SEM of three experiments.

calcium receptor = molecular target: T2, calcium receptor (Homo sapiens, UniProt P41180); assay: Xenopus oocytes injected with human parathyroid cell mRNA; assay type: cell-based; conditions: hexacyclen 135 μM; neomycin 100 μM; NPS 382 5 mM
T2 sequence (P41180 20-1078): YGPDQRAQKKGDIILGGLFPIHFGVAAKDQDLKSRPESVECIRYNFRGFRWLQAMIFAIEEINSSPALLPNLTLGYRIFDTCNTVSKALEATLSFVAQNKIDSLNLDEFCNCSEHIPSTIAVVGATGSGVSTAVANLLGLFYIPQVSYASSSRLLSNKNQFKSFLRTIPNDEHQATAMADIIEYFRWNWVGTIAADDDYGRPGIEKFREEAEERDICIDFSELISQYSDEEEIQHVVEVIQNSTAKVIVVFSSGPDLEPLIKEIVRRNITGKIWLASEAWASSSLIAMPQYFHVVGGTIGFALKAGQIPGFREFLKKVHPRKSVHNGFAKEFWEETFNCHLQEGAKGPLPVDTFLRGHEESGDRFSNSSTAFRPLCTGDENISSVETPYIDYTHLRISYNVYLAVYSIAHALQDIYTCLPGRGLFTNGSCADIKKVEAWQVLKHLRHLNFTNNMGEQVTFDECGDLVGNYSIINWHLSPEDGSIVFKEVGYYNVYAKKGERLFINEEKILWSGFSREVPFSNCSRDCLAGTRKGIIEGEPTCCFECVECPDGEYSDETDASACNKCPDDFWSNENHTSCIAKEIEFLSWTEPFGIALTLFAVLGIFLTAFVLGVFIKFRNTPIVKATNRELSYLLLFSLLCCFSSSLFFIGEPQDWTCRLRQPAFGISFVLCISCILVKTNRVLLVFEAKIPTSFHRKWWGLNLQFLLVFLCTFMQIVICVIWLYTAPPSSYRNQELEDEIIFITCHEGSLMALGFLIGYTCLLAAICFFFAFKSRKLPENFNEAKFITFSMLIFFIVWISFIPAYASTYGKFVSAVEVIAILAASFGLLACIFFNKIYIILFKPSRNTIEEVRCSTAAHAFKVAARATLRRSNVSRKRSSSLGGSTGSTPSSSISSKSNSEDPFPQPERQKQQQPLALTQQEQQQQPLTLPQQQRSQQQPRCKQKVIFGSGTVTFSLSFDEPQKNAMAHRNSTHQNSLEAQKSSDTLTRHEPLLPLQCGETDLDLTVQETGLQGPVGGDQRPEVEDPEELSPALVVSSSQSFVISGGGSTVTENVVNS
Experimental: Oocytes were injected with poly(A)^+ -enriched mRNA from human parathyroid tissue (hyperplastic glands from a case of secondary HPT).
as §2
Using this screen allows one to test for an action directly on the calcium receptor. Oocytes expressing the calcium receptor also responded to several molecules active on intact parathyroid cells when screened as follows. […] This offers rather compelling evidence showing that these molecules act on the calcium receptor or on some other protein intimately associated with its function.

[6] = molecular target: T1, parathyroid cell calcium receptor; assay: block of extracellular Ca2+-induced increases in [Ca2+]i in bovine parathyroid cells; assay type: cell-based

In the case of `C[N+](C)(C)CCOC(N)=O` [carbachol], the “response of calcium receptor-transfected cells” value [1] is reported as “did not respond”.

`CCCCCCCCCCCCCC(=O)O[C@@H]1[C@@H](C)[C@@]2(O)[C@@H](C=C(CO)C[C@]3(O)C(=O)C(C)=C[C@@H]23)[C@@H]2C(C)(C)[C@]12OC(C)=O` [PMA, phorbol myristate acetate] was tested, and the “effect on concentration-response curves for increases in [Ca2+]i” value ([2]; 100 nM) was “shift to the right in the concentration-response curve; also recorded: shifts to the right the concentration-response curves”, the “effect on concentration-response curves for inhibition of PTH secretion” value (bovine parathyroid cells; 100 nM, 30 minutes) was “shifts to the right the concentration-response curves” and the “effect on inositol phosphate formation” value (inositol phosphates) was “depresses the formation of IP1”.

With `COc1cccc(C(C)NCCCc2ccccc2)c1` (racemic) [NPS 467] the “effect on serum or whole blood Ca2+” value (serum ionized calcium) was “maximal within three hours”, the “effect on serum or whole blood Ca2+” value (serum ionized calcium; listed as NPS-467) was “dose-dependent reduction in serum or whole blood Ca^2+” and the “effect on circulating PTH” value (PTH) was “dose-dependent reduction in circulating levels of PTH”. For the same molecule, the “effect on serum albumin or phosphate” value [3] was “no change in serum albumin or phosphate levels”.

In the case of `CC(Cc1ccccc1)NCCC(c1ccccc1)c1ccccc1` (stereo not drawn) [Prenylamine], the “effect on [Ca2+]i in osteoclasts” value [4] is reported as “mobilization of [Ca^2+ ]i”.

With `CC(NCCC(c1ccccc1)c1ccccc1)c1ccccc1` (racemic) [Fendiline] the “effect on Cl- current / intracellular Ca2+” value [5] was “evokes the mobilization of intracellular Ca^2+” and the “effect on Cl- current / intracellular Ca2+” value ([5]; listed as fendiline) was “evokes oscillatory increases in Cl^-; also recorded: elicits oscillatory increases in Cl^-”.

With protamine the “effect on [Ca2+]i” value [2] was “evoked rapid and transient increases in [Ca^2+ ]i”, the “effect on intracellular Ca2+” value ([2]; neomycin B 30 μM, protamine 1 μg/ml) was “mobilization of intracellular Ca^2+” and the “effect on PTH secretion” value (bovine parathyroid cells; bovine parathyroid cells) was “inhibit PTH secretion; also recorded: inhibited PTH secretion to the same extent as extracellular Ca^2+”. The “effect on isoproterenol-induced increases in cyclic AMP” value (cyclic AMP) was “depressed isoproterenol-induced increases in cyclic AMP” and the “effect on inositol phosphate formation” value (inositol phosphates) was “increases the formation of inositol phosphates; also recorded: rapid (within 30 seconds) increase in the formation of IP3”.

With “substance K: ligand of substance K receptor (HKTDSFVGLM; ends and bridges not checked; UniProt P20366 98-107, looked up)” the “response of calcium receptor-transfected cells” value [1] was “did not respond”.

For `C1CNCCNCCNCCNCCNCCN1` [Hexacyclen, 1,4,7,10,13,16-hexaaza-cyclooctadecane], the “potency increase relative to pentaethylenehexamine” value ([2]; ring structure vs straight chain) was 25 fold and the “mobilization of intracellular Ca2+ in oocytes” value (calcium receptor) was “caused the mobilization of intracellular Ca^2+”.

In the case of `NCCCCCCCCCCCCNC(=O)Cc1ccc(O)cc1O` [NPS 021], the “effect on extracellular Ca2+-elicited increase in [Ca2+]i” value ([6]; 200 μM) is reported as “inhibited the increase in [Ca^2+ ]i”, the “effect on basal [Ca2+]i” value ([6]; 0.5 mM CaCl2) is reported as “caused no change in [Ca^2+ ]i; also recorded: does not by itself cause any change in [Ca^2+ ]i” and the “effect on extracellular Ca2+-evoked increase in [Ca2+]i” value ([6]; around 500 μM) is reported as “abolished”.

For `NCCCCNCCCN` [Spermidine], the “effect on [Ca2+]i” value [2] was “mobilize intracellular Ca^2+” and the “effect on [Ca2+]i in osteoclasts” value [4] was “none of these caused any large increase in [Ca^2+ ]i”.

In the case of `NCCCN(CCCN)CCCNCCCCNCCCN(CCCN)CCCN` [NPS 382, N^1,N^1,N^5,N^14,N^14-tetrakis-(3-aminopropyl)spermine], the “effect on [Ca2+]i” value [2] is reported as “mobilize intracellular Ca^2+”, the “relative potency, in words” value ([2]; parathyroid cells) is reported as “about twice as potent as NPS 381” and the “mobilization of intracellular Ca2+ in oocytes” value (calcium receptor) is reported as “also effective”.
